Patent publication US20050008851A1, “Biosensor” (FUJI PHOTO FILM CO., LTD., priority 2003, published 2005)

Settings: water at 20° C.

SMILES	solubility in water
C=C(C)C(=O)OCCCC [butyl methacrylate]	0.03 % by weight
C=Cc1ccccc1 [styrene]	0.03 % by weight
C=C(C)C(=O)OC [methyl methacrylate]	1.35 % by weight
